# From ChEMBL document CHEMBL1143525, “A fluorescent inositol phosphate glycan stimulates lipogenesis in rat adipocytes by extracellular activation alone” (Bioorg Med Chem Lett, 2005)
# Tests used:
# Rattus norvegicus [1] = species: Rattus norvegicus; test: Maximal activity to stimulate lipogenisis in rat adipocytes compared to the maximal effect of insulin; type: functional
# Rattus norvegicus [2] = species: Rattus norvegicus; test: Value of Kd measured against rat Adipocytes; type: functional, organism-based
Kd (Rattus norvegicus [2]) [µM],Compound,Activity (Rattus norvegicus [1]) [%]
15.9,NC1[C@H](O[C@H]2C(O)C(O)[C@@H](O)C3OP(=O)(O)O[C@H]32)OC(CO)[C@@H](O)[C@@H]1O (some centres undefined),24
12,Nc1c(S(=O)(=O)[O-])cc2c3c(cc(S(=O)(=O)[O-])cc13)C(=O)N(CCNC(=O)CSC[C@@H]1O[C@@H](O[C@H]3[C@H](O)[C@H](O)[C@@H](O)[C@@H]4OP(=O)(O)O[C@@H]34)[C@@H](N)[C@@H](O)[C@@H]1O)C2=O.[K+].[K+],47
